Holding throughout (format): in vivo
The subject of experiment [1] is Mycosphaerella graminicola=Septoria tritici. The experiment is described as follows: Speckled Leaf Blotch of Wheat (SEPTTR) whole-plant disease control test. The settings on record: Mycosphaerella, foliar, 75 ppm applied to foliage of wheat; read-out: SEPTTR disease control.
Experiment [2] relates to Erysiphe cichoracaerum. The experiment is described as follows: Cucumber Powdery Mildew (ERYSCI) whole-plant disease control test. The settings on record: Erysiphe, foliar; 200 ppm applied to foliage of cucumber; inoculated one day after treatment; read-out: ERYSCI disease control.
Experiment [3] relates to Phytophthora infestans. The experiment is described as follows: whole plant or invertebrate. To be noted: Phytophthora infestans, in Solanum lycopersicum, foliar, read-out: PHYTIN disease control, 200 ppm applied to foliage of tomato; inoculated one day after treatment.
The subject of experiment [4] is Magnaporthe grisea=Pyricularia oryzae. The experiment is described as follows: whole plant or invertebrate. To be noted: Pyricularia oryzae, foliar; for pest or weed control at 200 ppm: read-out: PYRIOR disease control, 200 ppm applied to foliage of rice, inoculated one day after treatment; for pest or weed control at 8.3 ppm: read-out: PYRIOR disease control, 8.3 ppm (footnote c), rice foliage.

Experiment [5] has as its system Puccinia recondita tritici. Briefly: Leaf Rust of Wheat (PUCCRT) whole-plant disease control test. The settings on record: Puccinia recondita, foliar; for pest or weed control at 200 ppm: 200 ppm applied to foliage of wheat, inoculated one day after treatment, read-out: PUCCRT disease control; for pest or weed control at 8.3 ppm: 8.3 ppm (footnote c), wheat foliage.

Experiment [6] relates to Leptosphaeria nodorum. Briefly: Glume Blotch of Wheat (LEPTNO) whole-plant disease control test. The settings on record: Parastagonospora nodorum, foliar; for pest or weed control at 200 ppm: 200 ppm applied to foliage of wheat, inoculated one day after treatment, read-out: LEPTNO disease control; for pest or weed control at 75 ppm: 75 ppm (footnote b), wheat foliage.
Experiment [7] has as its system Colletotricum lagenarium. Briefly: Cucumber Anthracnose (COLLLA) whole-plant disease control test. The settings on record: Cucumis sativus, foliar; 200 ppm applied to foliage of cucumber; inoculated one day after treatment; read-out: COLLLA disease control.

For the compound `FC(F)(F)c1ccc(Oc2ccc(CCNc3ncnc4scc(Cl)c34)cc2)nc1` [Compound 1, 5-(Chlorothieno[2,3-d]pyrimidin-4-yl)-{2-[4-(5-trifluoromethylpyridin-2-yloxy)phenyl]ethyl}amine], in experiment [1], the pest or weed control at 75 ppm is 50 to 79%. For the same compound, the pest or weed control at 200 ppm in experiment [2] is 50 to 79%; in experiment [3] it was 0 to 49%; in experiment [4], 80 to 100%; in experiment [5], 80 to 100%; in experiment [6], 50 to 79%; in experiment [7] it was 0 to 49%.
For the compound `CS(=O)(=O)c1ccc(Oc2ccc(CCNc3ncnc4scc(Cl)c34)cc2)nc1` [Compound 2], the pest or weed control at 200 ppm was in the range of 0 to 49% in experiment [2]; 0 to 49% in experiment [3]; 50 to 79% in experiment [4]; 80 to 100% in experiment [5]; 0 to 49% in experiment [6]; 0 to 49% in experiment [7].
As for `COC(=O)c1ccc(Oc2ccc(CCNc3ncnc4scc(Cl)c34)cc2)nc1` [Compound 20], the pest or weed control at 200 ppm in experiment [2] was in the range of 0 to 49%; in experiment [3], 0 to 49%; in experiment [4], 0 to 49%; in experiment [5], 80 to 100%; in experiment [6] it was 0 to 49%; in experiment [7] it was 0 to 49%.
As for `NC(=O)c1cccc(Oc2ccc(CCNc3ncnc4scc(Cl)c34)cc2)n1` [Compound 82], the pest or weed control at 75 ppm in experiment [1] and in experiment [6] was 50 to 79% each time. The pest or weed control at 8.3 ppm in experiment [4] and in experiment [5] was 80 to 100% each time.
Regarding `O=[N+]([O-])c1cccc(Oc2ccc(CCNc3ncnc4scc(Cl)c34)cc2)n1` [Compound 83], the pest or weed control at 75 ppm in experiment [1] and in experiment [6] was 50 to 79% each time. The pest or weed control at 8.3 ppm in experiment [4] and in experiment [5] was 80 to 100% in each case.
On to `COc1cccc(Oc2ccc(CCNc3ncnc4scc(Cl)c34)cc2)n1` [Compound 84, (5-Chlorothieno[2,3-d]pyrimidin-4-yl)-{2-[4-(6-methoxypyridin-2-yloxy)phenyl]ethyl}amine], for which the pest or weed control at 75 ppm in experiment [1] and in experiment [6] was 50 to 79% in each case. In addition, the pest or weed control at 8.3 ppm in experiment [4] and in experiment [5] was 80 to 100% in each case.
For the compound `O=c1ncn(-c2cccc(Oc3ccc(CCNc4ncnc5scc(Cl)c45)cc3)n2)[nH]1` [Compound 90], the pest or weed control at 75 ppm in experiment [1] fell in the range of 50 to 79%; in experiment [6] it was 0 to 49%. Moreover, the pest or weed control at 8.3 ppm in experiment [4] lay in the range of 50 to 79%; in experiment [5], 0 to 49%.
Turning to `C[S+]([O-])c1cc(Cl)nc(Oc2ccc(CCNc3ncnc4scc(Cl)c34)cc2)c1` (centres unmarked) [Compound 92], the pest or weed control at 75 ppm in experiment [1] was in the range of 50 to 79%; in experiment [6] it was 0 to 49%. In addition, the pest or weed control at 8.3 ppm in experiment [4] and in experiment [5] was 80 to 100% in each case.
Consider `CSc1cc(C(F)(F)F)cc(Oc2ccc(CCNc3ncnc4scc(Cl)c34)cc2)n1` [Compound 93], for which the figures for the pest or weed control at 75 ppm in experiment [1] and in experiment [6] were 50 to 79% and 0 to 49%, respectively. Besides, the pest or weed control at 8.3 ppm in experiment [4] and in experiment [5] was 80 to 100% throughout.
Consider `CC(C)(C)c1noc(-c2cccc(Oc3ccc(CCNc4ncnc5scc(Cl)c45)cc3)n2)n1` [Compound 96], for which the pest or weed control at 75 ppm in experiment [1] and in experiment [6] was 50 to 79% each time. For the same compound, the pest or weed control at 8.3 ppm in experiment [4] fell in the range of 50 to 79%; in experiment [5] it was 80 to 100%.
On to `O=C(O)c1ccc(C(F)(F)F)nc1Oc1ccc(CCNc2ncnc3scc(Cl)c23)cc1` [Compound 98], for which the pest or weed control at 75 ppm lay in the range of 50 to 79% in experiment [1] and 0 to 49% in experiment [6]. Besides, the pest or weed control at 8.3 ppm in experiment [4] and in experiment [5] was 0 to 49% throughout.
As for `CC(=O)c1cccc(Oc2ccc(CCNc3ncnc4scc(Cl)c34)cc2)n1` [Compound 100], the pest or weed control at 8.3 ppm in experiment [4] and in experiment [5] was 80 to 100% in each case. Further, the pest or weed control at 75 ppm in experiment [6] lay within 0 to 49%.
On to `CC(C)(C)C(=O)NNc1cccc(Oc2ccc(CCNc3ncnc4scc(Cl)c34)cc2)n1` [Compound 102, 2,2-Dimethylpropionic acid N′-(6-{4-[2-(5-chlorothieno[2,3-d]pyrimidin-4-ylamino)ethyl]phenoxy}pyridine-2-yl)-hydrazide], for which the pest or weed control at 75 ppm in experiment [1] and in experiment [6] was 0 to 49% in each case. Moreover, the pest or weed control at 8.3 ppm is 50 to 79% in experiment [4] and 0 to 49% in experiment [5].
On to `CC(C)(C)c1nnc(Oc2ccc(CCNc3ncnc4scc(Cl)c34)cc2)s1` [Compound 109], for which the pest or weed control at 75 ppm in experiment [1] and in experiment [6] was 50 to 79% in each case. Moreover, the pest or weed control at 8.3 ppm in experiment [4] and in experiment [5] was 80 to 100% in each case.
Turning to `FC(F)(F)COc1cccc(Oc2ccc(CCNc3ncnc4scc(Cl)c34)cc2)n1` [Compound 111], the results for the pest or weed control at 75 ppm in experiment [1] and in experiment [6] were 50 to 79% and 0 to 49%, respectively. The pest or weed control at 8.3 ppm in experiment [4] is 80 to 100%; in experiment [5], 50 to 79%.
For `COc1cnc(C(F)(F)F)c(F)c1Oc1ccc(CCNc2ncnc3scc(Cl)c23)cc1` [Compound 113], the pest or weed control at 75 ppm in experiment [1] and in experiment [6] was 0 to 49% throughout. Further, the pest or weed control at 8.3 ppm in experiment [4] and in experiment [5] was 80 to 100% throughout.
As to `Clc1csc2ncnc(NCCc3ccc(Oc4snnc4-c4ccccc4)cc3)c12` [Compound 115], the pest or weed control at 75 ppm in experiment [1] and in experiment [6] was 50 to 79% throughout. Besides, the results for the pest or weed control at 8.3 ppm in experiment [4] and in experiment [5] were 50 to 79% and 80 to 100%, respectively.
For the compound `COc1ccc([N+](=O)[O-])c(Oc2ccc(CCNc3ncnc4scc(Cl)c34)cc2)n1` [Compound 116], the pest or weed control at 75 ppm in experiment [1] and in experiment [6] was 0 to 49% in each case. Moreover, the pest or weed control at 8.3 ppm in experiment [4] was in the range of 0 to 49%; in experiment [5], 80 to 100%.
With `CC(C)Cc1nnc(Oc2ccc(CCNc3ncnc4scc(Cl)c34)cc2)s1` [Compound 117], the pest or weed control at 75 ppm in experiment [1] and in experiment [6] was 0 to 49% each time. Further, the pest or weed control at 8.3 ppm in experiment [4] and in experiment [5] was 80 to 100% in each case.
In the case of `Clc1csc2ncnc(NCCc3ccc(Oc4nnc(-c5ccncc5)s4)cc3)c12` [Compound 118], the pest or weed control at 75 ppm in experiment [1] and in experiment [6] was 0 to 49% each time. For the same compound, the pest or weed control at 8.3 ppm in experiment [4] and in experiment [5] was 80 to 100% in each case.
Turning to `Clc1csc2ncnc(NCCc3ccc(Oc4nnc(COc5ccccc5)s4)cc3)c12` [Compound 119], the pest or weed control at 75 ppm in experiment [1] and in experiment [6] was 0 to 49% each time. The pest or weed control at 8.3 ppm in experiment [4] and in experiment [5] was 80 to 100% in each case.
As to `O=Cc1sc(Oc2ccc(CCNc3ncnc4scc(Cl)c34)cc2)nc1Cl` [Compound 121], the pest or weed control at 75 ppm in experiment [1] and in experiment [6] was 0 to 49% in each case. Further, the pest or weed control at 8.3 ppm in experiment [4] and in experiment [5] was 80 to 100% throughout.
Take `FC(F)(F)c1cnccc1Oc1ccc(CCNc2ncnc3scc(Cl)c23)cc1` [Compound 126]: the pest or weed control at 75 ppm was in the range of 80 to 100% in experiment [1] and 50 to 79% in experiment [6]. In experiment [5], this compound came in with a pest or weed control at 8.3 ppm of 80 to 100%.
On to `FC(F)(F)COc1ccnc(Oc2ccc(CCNc3ncnc4scc(Cl)c34)cc2)c1` [Compound 127], for which the results for the pest or weed control at 75 ppm in experiment [1] and in experiment [6] were 50 to 79% and 80 to 100%, respectively. The pest or weed control at 8.3 ppm in experiment [5] was in the range of 80 to 100%.
With `Nc1c(F)c(F)nc(Oc2ccc(CCNc3ncnc4scc(Cl)c34)cc2)c1F` [Compound 128], the pest or weed control at 8.3 ppm in experiment [4] and in experiment [5] was 80 to 100% in each case.
Take `Fc1cc(F)c(Oc2ccc(CCNc3ncnc4scc(Cl)c34)cc2)nc1F` [Compound 129]: the pest or weed control at 75 ppm in experiment [1] was in the range of 80 to 100%; in experiment [6], 50 to 79%. The pest or weed control at 200 ppm in experiment [4] and in experiment [5] was 80 to 100% in each case.
For `N#Cc1c(Cl)cncc1Oc1cccc(CCNc2ncnc3scc(Cl)c23)c1` [Compound 130], the pest or weed control at 75 ppm in experiment [1] is 0 to 49%. The pest or weed control at 200 ppm was 0 to 49% in experiment [2]; 80 to 100% in experiment [3]; 80 to 100% in experiment [4]; 80 to 100% in experiment [5]; 0 to 49% in experiment [7].
For `Fc1cnc(C(F)(F)F)c(F)c1Oc1cccc(CCNc2ncnc3scc(Cl)c23)c1` [Compound 131], in experiment [5], the pest or weed control at 8.3 ppm fell in the range of 50 to 79%.
Consider `Fc1ccc(F)c(Oc2ccc(CCNc3ncnc4scc(Cl)c34)cc2)n1` [Compound 132], for which the pest or weed control at 8.3 ppm in experiment [4] and in experiment [5] was 80 to 100% each time.
For the compound `N#Cc1ccc(C(F)(F)F)nc1Oc1ccc(CCNc2ncnc3scc(Cl)c23)cc1` [Compound 133], the pest or weed control at 8.3 ppm in experiment [5] was in the range of 0 to 49%.

The values above are taken from patent US7531482B2, “Thieno-pyrimidine compounds having fungicidal activity” (Dow AgroSciences LLC, priority 2005, dated 2009).
